Experimental data as given in patent US20110165565A1, “COMPOSITIONS AND METHODS FOR POLYNUCLEOTIDE EXTRACTION AND METHYLATION DETECTION” (THE JOHNS HOPKINS UNIVERSITY, priority 2008, published 2011).

System: p16 promoter methylation in colorectal cancer cell line RKO
Assay: MS-qFRET quantification of p16 methylation reversal in RKO cells treated with DAC
Type: cell-based
Text: The quantitative ability of MS-qFRET was further tested in cell lines and in patient samples as a function of response to a DNA demethylating agent. Reversal of methylation in the colorectal cancer cell line, RKO, was quantified at specific time points after treatment with 5-aza-2′-deoxycytidine (DAC). […] Since DNA replication is necessary for incorporation of DAC into DNA, reversal of methylation may be best observed only after inhibition of DNA methyltransferases due to cell cycling. The low amount of methylation reversal in the initial 24 to 36 hours could be attributed to the 22 hour doubling time for RKO cells.
(ID and IA corresponding to donor and acceptor intensity).

Nc1ncn([C@H]2C[C@H](O)[C@@H](CO)O2)c(=O)n1 [5-aza-2′-deoxycytidine (DAC), 5-aza-2′-deoxycytidine]
q-score, level of p16 methylation post-treatment (DNA from RKO cells treated with DAC for different time points (FIG. 3C)): drop in the level of methylation | time of maximal reversal of methylation at p16 (RKO cells, 1 μM DAC, post-treatment): 60 h
